Non-standard residues stand in square brackets, D forms with d. Residues, ends and D or L forms follow the SMILES beside them.
How the values were obtained:
frog skin = assay: Frog skin assay: melanosome dispersion (skin darkening) in vitro; assay type: cell-based, Rana pipiens; details: for Creeping potency (percentage skin darkening at a particular dose increases with time): frog skin bioassay; for Potencies Relative to α-MSH, Frog Skin Assay: tested in the range 10^-12 to 10^-9 M, compared to half-maximal effective dose of α-MSH (10^-10 M)
Description: (§1) The peptides described above were examined to determine the relative potencies of the peptides in respect to the stimulation of a melanosome dispersion in vitro using the frog (Rana pipiens) and the lizard (Anolis carolinensis) [see Science 213:1025 (1981)]. These assays are recognized by the scientific communitty to be a fairly accurate representation of results that would be expected when the test substances are administered to vertebrates in vivo; if activity is found when the test substances are tested in the frog skin assay and the lizard skin assay, similar activity would be expected if the test substances are administered to vertebrates, i.e, darkening in the two assays would indicate that darkening would also occur in vertebrates. These assays measure the amount of light reflected from the surface of the skins in vitro. In response to melanotropic peptides, melanosomes within integumental melanocytes migrate from a perinuclear position into the dendritic processes of the pigment cells. This centrifugal organellar dispersion results in a change of color (darkening) of the skins which is measured by a Photovolt reflectometer and is expressed as the percent response compared to the initial (time zero) reflectance value. | ^a = all peptide derivatives were tested in the range of 10^-12 t | 10^-9 M concentration; compared to the halfmaximal effective dose of | aMSH in the frog skin assay (10^-10 M), or in the lizard skin assay | (10^-9 M).

lizard skin = assay: Lizard skin assay: melanosome dispersion (skin darkening) in vitro; assay type: cell-based, Anolis carolinensis; details: tested in the range 10^-12 to 10^-9 M; compared to half-maximal effective dose of α-MSH (10^-9 M)
Description: as §1

[1] = system: crude cell membranes of B-16 mouse melanoma cells; assay: Affinity of peptide to homogenized crude cell membranes (HPLC of supernatant and pellet extract); assay type: binding
Description: 0.3 μmole of peptide SHU-9002 was dissolved in 1 ml solution of homogenized crude cell membranes, obtained from about 0.6 million B-16 mouse melanoma cells, in phosphate buffer. After 5 hrs, the suspension was centrifuged at 10,000×g for 10 min. The pellet was saved and the supernatant subjected to HPLC on a C-18 column.
The pellet saved above was treated with DMSO-0.1% aq. TFA mixture (1:1), centrifuged as before and the supernatant subjected to HPLC as earlier.

SMILES	Potencies Relative to α-MSH, Frog Skin Assay (frog skin)	Potencies Relative to α-MSH, Lizard Skin Assay (lizard skin)	other results
CCCC[C@H](NC(=O)[C@H](CO)NC(=O)[C@H](Cc1ccc(O)cc1)NC(=O)[C@H](CO)NC(C)=O)C(=O)N[C@H]1CCC(=O)N[C@@H](CCCNC(=N)N)C(=O)N[C@@H](CCCNC(=N)N)C(=O)NCCCC[C@@H](C(=O)N2CCC[C@H]2C(=O)N[C@H](C(N)=O)C(C)C)NC(=O)CNC(=O)[C@H](Cc2c[nH]c3ccccc23)NC(=O)[C@H](CCCNC(=N)N)NC(=O)[C@@H](Cc2ccccc2)NC(=O)[C@H](Cc2c[nH]cn2)NC1=O [SHU 9002]	25	2	Creeping potency (percentage skin darkening at a particular dose increases with time) (frog skin): exhibited creeping potency; Presence of peptide in supernatant after incubation with cell membranes (HPLC, C-18) ([1]; 0.3 μmole peptide in 1 ml membrane homogenate from about 0.6 million cells, phosphate buffer, 5 hrs, centrifuged 10,000×g 10 min): no evidence for the presence of the peptide SHU-9002 in the supernatant; Affinity to the cell membranes ([1]; conclusion from supernatant and pellet HPLC): marked affinity; Peptide recovered from membrane pellet (HPLC after DMSO-0.1% aq. TFA 1:1 treatment) ([1]; pellet of the 5 hrs incubation): elution pattern corresponding to the SHU-9002 was obtained
CCCC[C@H](NC(=O)[C@H](CO)NC(=O)[C@H](Cc1ccc(O)cc1)NC(=O)[C@H](CO)NC(C)=O)C(=O)N[C@H]1CCC(=O)N[C@@H](CCCCN)C(=O)N[C@@H](CCCCN)C(=O)NCCCC[C@@H](C(=O)N2CCC[C@H]2C(=O)N[C@H](C(N)=O)C(C)C)NC(=O)CNC(=O)[C@H](Cc2c[nH]c3ccccc23)NC(=O)[C@H](CCCNC(=N)N)NC(=O)[C@@H](Cc2ccccc2)NC(=O)[C@H](Cc2c[nH]cn2)NC1=O [SHU 9009]	100	5	–
CCCC[C@H](NC(=O)[C@H](CO)NC(=O)[C@H](Cc1ccc(O)cc1)NC(=O)[C@H](CO)NC(C)=O)C(=O)N[C@H]1CCC(=O)N[C@@H](CCCCN)C(=O)N[C@@H](CCCNC(=N)N)C(=O)NCCCC[C@@H](C(=O)N2CCC[C@H]2C(=O)N[C@H](C(N)=O)C(C)C)NC(=O)CNC(=O)[C@H](Cc2c[nH]c3ccccc23)NC(=O)[C@H](CCCNC(=N)N)NC(=O)[C@@H](Cc2ccccc2)NC(=O)[C@H](Cc2c[nH]cn2)NC1=O [SHU 9010]	145	–	Creeping potency (percentage skin darkening at a particular dose increases with time) (frog skin): exhibited creeping potency
CC(=O)N[C@@H](CO)C(=O)N[C@@H](Cc1ccc(O)cc1)C(=O)N[C@@H](CCCCN)C(=O)N[C@@H](CCCCN)C(=O)N[C@H]1CCC(=O)N[C@@H](CCCNC(=N)N)C(=O)N[C@@H](CCCCN)C(=O)NCCCC[C@@H](C(=O)N2CCC[C@H]2C(=O)N[C@H](C(N)=O)C(C)C)NC(=O)CNC(=O)[C@H](Cc2c[nH]c3ccccc23)NC(=O)[C@H](CCCNC(=N)N)NC(=O)[C@@H](Cc2ccccc2)NC(=O)[C@H](Cc2c[nH]cn2)NC1=O [SHU 9013]	1	4	–
CCCC[C@H](NC(=O)[C@H](CO)NC(=O)[C@H](Cc1ccc(O)cc1)NC(=O)[C@H](CO)NC(C)=O)C(=O)N[C@H]1CCC(=O)N[C@@H](CCCNC(=N)N)C(=O)N[C@@H](CCCCN)C(=O)NCCCC[C@@H](C(=O)N2CCC[C@H]2C(=O)N[C@H](C(N)=O)C(C)C)NC(=O)CNC(=O)[C@H](Cc2c[nH]c3ccccc23)NC(=O)[C@H](CCCNC(=N)N)NC(=O)[C@@H](Cc2ccccc2)NC(=O)[C@H](Cc2c[nH]cn2)NC1=O [SHU 9014]	20	4	–
CCCC[C@H](NC(C)=O)C(=O)N[C@H]1CC(=O)N[C@@H](CCCCN)C(=O)N[C@@H](CCCNC(=N)N)C(=O)NCCCC[C@@H](C(N)=O)NC(=O)[C@H](Cc2c[nH]c3ccccc23)NC(=O)[C@H](CCCNC(=N)N)NC(=O)[C@@H](Cc2ccccc2)NC(=O)[C@H](Cc2c[nH]cn2)NC1=O [SHU 9018]	0.05	10	–
CCCC[C@H](NC(C)=O)C(=O)N[C@H]1CC(=O)N[C@@H](CCCCN)C(=O)N[C@@H](CCCCN)C(=O)NCCCC[C@@H](C(N)=O)NC(=O)[C@H](Cc2c[nH]c3ccccc23)NC(=O)[C@H](CCCNC(=N)N)NC(=O)[C@@H](Cc2ccccc2)NC(=O)[C@H](Cc2c[nH]cn2)NC1=O [SHU 9019]	–	12.5	–
CCCC[C@H](NC(C)=O)C(=O)N[C@H]1CC(=O)N[C@@H](CCCNC(=N)N)C(=O)N[C@@H](CCCNC(=N)N)C(=O)NCCCC[C@@H](C(N)=O)NC(=O)[C@H](Cc2c[nH]c3ccccc23)NC(=O)[C@H](CCCNC(=N)N)NC(=O)[C@@H](Cc2ccccc2)NC(=O)[C@H](Cc2c[nH]cn2)NC1=O [SHU 9020]	0.14	6.7	–
CCCC[C@H](NC(C)=O)C(=O)N[C@H]1CC(=O)N[C@@H](CCCNC(=N)N)C(=O)N[C@@H](CCCCN)C(=O)NCCCC[C@@H](C(N)=O)NC(=O)[C@H](Cc2c[nH]c3ccccc23)NC(=O)[C@H](CCCNC(=N)N)NC(=O)[C@@H](Cc2ccccc2)NC(=O)[C@H](Cc2c[nH]cn2)NC1=O [SHU 9021]	0.25	13.4	–
CCCC[C@@H]1NC(=O)CC[C@H](NC(=O)[C@H](CCCC)NC(=O)[C@H](CO)NC(=O)[C@H](Cc2ccc(O)cc2)NC(=O)[C@H](CO)NC(C)=O)C(=O)N[C@@H](Cc2c[nH]cn2)C(=O)N[C@H](Cc2ccccc2)C(=O)N[C@@H](CCCNC(=N)N)C(=O)N[C@@H](Cc2c[nH]c3ccccc23)C(=O)NCC(=O)N[C@H](C(=O)N2CCC[C@H]2C(=O)N[C@H](C(N)=O)C(C)C)CCCCNC(=O)[C@H](CCCC)NC1=O [SHU 9026]	7	–	–
CC(=O)N[C@@H](CO)C(=O)N[C@@H](Cc1ccc(O)cc1)C(=O)N[C@@H](CCCCN)C(=O)N[C@@H](CCCCN)C(=O)N[C@@H](CCC(=O)O)C(=O)N[C@@H](Cc1c[nH]cn1)C(=O)N[C@H](Cc1ccccc1)C(=O)N[C@@H](CCCNC(=N)N)C(=O)N[C@@H](Cc1c[nH]c2ccccc12)C(=O)NCC(=O)N[C@@H](CCCCN)C(=O)N1CCC[C@H]1C(=O)N[C@H](C(N)=O)C(C)C [SHU 9027, Ac[Lys^3,4, DPhe^7]-α-MSH1-13NH2] (Ac-SYKKEH[dF]RWGKPV-NH2)	0.4	–	–
CCCC[C@H](NC(=O)[C@H](CO)NC(=O)[C@H](Cc1ccc(O)cc1)NC(=O)[C@H](CO)NC(C)=O)C(=O)N[C@H]1CCC(=O)NCCCC[C@@H](C(=O)N2CCC[C@H]2C(=O)N[C@H](C(N)=O)C(C)C)NC(=O)CNC(=O)[C@H](Cc2c[nH]c3ccccc23)NC(=O)[C@H](CCCNC(=N)N)NC(=O)[C@@H](Cc2ccccc2)NC(=O)[C@H](Cc2c[nH]cn2)NC1=O [SHU-9205]	1.3	–	–
CCCC[C@H](NC(=O)[C@H](CO)NC(=O)[C@H](Cc1ccc(O)cc1)NC(=O)[C@H](CO)NC(C)=O)C(=O)N[C@H]1CCC(=O)N[C@@H](CCC(=O)O)C(=O)N[C@@H](CCC(=O)O)C(=O)NCCCC[C@@H](C(=O)N2CCC[C@H]2C(=O)N[C@H](C(N)=O)C(C)C)NC(=O)CNC(=O)[C@H](Cc2c[nH]c3ccccc23)NC(=O)[C@H](CCCNC(=N)N)NC(=O)[C@@H](Cc2ccccc2)NC(=O)[C@H](Cc2c[nH]cn2)NC1=O [SHU-9207]	1.3	–	–
CCCC[C@H](NC(=O)[C@H](CO)NC(=O)[C@H](Cc1ccc(O)cc1)NC(=O)[C@H](CO)NC(C)=O)C(=O)N[C@H]1CCC(=O)N[C@@H](CO)C(=O)N[C@@H](CO)C(=O)NCCCC[C@@H](C(=O)N2CCC[C@H]2C(=O)N[C@H](C(N)=O)C(C)C)NC(=O)CNC(=O)[C@H](Cc2c[nH]c3ccccc23)NC(=O)[C@H](CCCNC(=N)N)NC(=O)[C@@H](Cc2ccccc2)NC(=O)[C@H](Cc2c[nH]cn2)NC1=O [SHU-9209]	5	–	–
CCCC[C@H](NC(=O)[C@H](CO)NC(=O)[C@H](Cc1ccc(O)cc1)NC(=O)[C@H](CO)NC(C)=O)C(=O)N[C@H]1CCC(=O)N[C@H](CCCCN)C(=O)N[C@H](CCCCN)C(=O)NCCCC[C@@H](C(=O)N2CCC[C@H]2C(=O)N[C@H](C(N)=O)C(C)C)NC(=O)CNC(=O)[C@H](Cc2c[nH]c3ccccc23)NC(=O)[C@H](CCCNC(=N)N)NC(=O)[C@@H](Cc2ccccc2)NC(=O)[C@H](Cc2c[nH]cn2)NC1=O [SHU-9210]	3.5	–	–
